From ChEMBL document CHEMBL1201862, “PubChem BioAssay data set” (2004)
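Where inhibition never reached the appropriate level, the endpoint shown equals the highest concentration tested. Otherwise, values were interpolated linearly from a five-concentration, 48-hour dose response in 96-well plates. GI50 = concentration required for 50% inhibition of growth.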 The source made the active and inactive calls. No stated cut-off is given here; in the data, active = GI50 up to about 1.1 µM and inactive = higher.

Tests used:
Experiment in all cases: inhibition of tumour cell growth, NCI panel, 48 h
[1] = system: 786-0
[2] = system: CCRF-CEM
[3] = system: COLO 205
[4] = system: HOP-92
[5] = system: HT-29
[6] = system: Hs-578T
[7] = system: M14
[8] = system: MCF7
[9] = system: MDA-N
[10] = system: NCI/ADR-RES
[11] = system: OVCAR-3
[12] = system: OVCAR-4
[13] = system: OVCAR-8
[14] = system: PC-3
[15] = system: T47D
[16] = system: UACC-62
[17] = system: SR

Structure (SMILES) | GI50 [1] | GI50 [2] | GI50 [3] | GI50 [4] | GI50 [5] | GI50 [6] | GI50 [7] | GI50 [8] | GI50 [9] | GI50 [10] | GI50 [11] | GI50 [12] | GI50 [13] | GI50 [14] | GI50 [15] | GI50 [16] | GI50 [17]
CCn1c2c(c3ccccc3c1=O)C(=O)c1ccccc1-2 | > 100 µM (inactive) | 22 µM (inactive) | > 100 µM (inactive) | > 100 µM (inactive) | > 100 µM (inactive) | 74.5 µM (inactive) | > 100 µM (inactive) | > 100 µM (inactive) | > 100 µM (inactive) | > 100 µM (inactive) | > 100 µM (inactive) | > 100 µM (inactive) | > 100 µM (inactive) | > 100 µM (inactive) | > 100 µM (inactive) | > 100 µM (inactive) | 
NC(=O)NNc1nc2ccccc2c(=O)n1NC(=O)C(=O)Nc1ccc(Cl)cc1Cl | > 100 µM (inactive) | > 100 µM (inactive) |  | > 100 µM (inactive) | > 100 µM (inactive) | > 100 µM (inactive) | > 100 µM (inactive) | > 100 µM (inactive) | > 100 µM (inactive) | > 100 µM (inactive) | > 100 µM (inactive) | > 100 µM (inactive) | > 100 µM (inactive) | > 100 µM (inactive) | > 100 µM (inactive) | > 100 µM (inactive) | 65.2 µM (inactive)
CCC1C(=O)OCc2c1cc1n(c2=O)Cc2cc3ccccc3nc2-1 (centres undefined) | 3.23 µM (inactive) | 0.377 µM (active) | 72.3 µM (inactive) | 13.1 µM (inactive) | 29.5 µM (inactive) | > 54.3 µM (inactive) | 3.38 µM (inactive) | 1.59 µM (inactive) | 45.6 µM (inactive) | 8.43 µM (inactive) | > 100 µM (inactive) | > 81.8 µM (inactive) | 5.69 µM (inactive) | 15.4 µM (inactive) | 4.38 µM (inactive) | 3.72 µM (inactive) | 
COc1ccc(C(O)(c2ccccc2)c2nccc3ccccc23)cc1 (centres undefined) | 7.62 µM (inactive) | 2.01 µM (inactive) | 4.47 µM (inactive) |  | 7.46 µM (inactive) | 4.71 µM (inactive) | 2.76 µM (inactive) | 4.32 µM (inactive) | 3.2 µM (inactive) | 7.05 µM (inactive) | 2.48 µM (inactive) | 11 µM (inactive) | 18.1 µM (inactive) | 3.02 µM (inactive) | 36.8 µM (inactive) | 3.74 µM (inactive) | 7.74 µM (inactive)
CC1CC(=O)N(N(C)C)C2(C#N)C(=O)N=C(N)C12C#N (centres undefined) | > 100 µM (inactive) | 23.2 µM (inactive) | 38.7 µM (inactive) | > 100 µM (inactive) | > 100 µM (inactive) | > 100 µM (inactive) | > 100 µM (inactive) | > 100 µM (inactive) | > 100 µM (inactive) | > 100 µM (inactive) |  | > 100 µM (inactive) | > 100 µM (inactive) | > 100 µM (inactive) | > 100 µM (inactive) | 35.8 µM (inactive) | > 100 µM (inactive)
Cn1c(S)nc(C(N)=O)c1N | > 100 µM (inactive) | > 100 µM (inactive) | > 100 µM (inactive) |  | > 100 µM (inactive) | > 100 µM (inactive) | > 100 µM (inactive) | > 100 µM (inactive) | > 100 µM (inactive) | > 100 µM (inactive) | > 100 µM (inactive) | > 100 µM (inactive) | > 100 µM (inactive) | > 100 µM (inactive) | 72.4 µM (inactive) | > 100 µM (inactive) | > 100 µM (inactive)
N#CC(Cc1ccccc1)N(CCC1=CCCCC1)C(c1ccccc1)c1ccccc1 (centres undefined) | > 100 µM (inactive) | 0.456 µM (active) | 35.2 µM (inactive) | 28.1 µM (inactive) | 12.8 µM (inactive) | 69.3 µM (inactive) | 18.8 µM (inactive) | 42.4 µM (inactive) | 24.4 µM (inactive) | > 100 µM (inactive) | > 100 µM (inactive) | > 100 µM (inactive) | > 100 µM (inactive) | 73.6 µM (inactive) | 42.3 µM (inactive) | > 100 µM (inactive) | 
C[N+]1(C)CC=C(N2CCOCC2)CC1 | > 10 µM (inactive) | > 10 µM (inactive) | > 10 µM (inactive) |  | > 10 µM (inactive) | > 10 µM (inactive) | > 10 µM (inactive) | > 10 µM (inactive) | > 10 µM (inactive) | > 10 µM (inactive) | > 10 µM (inactive) | > 10 µM (inactive) | > 10 µM (inactive) | > 10 µM (inactive) | > 10 µM (inactive) | > 10 µM (inactive) | > 10 µM (inactive)
CCCCCCCCCCC[N+]1(Cc2ccccc2)CC2CCN(Cc3ccccc3)CC2C1 (centres undefined) | 1.03 µM (active) | 0.261 µM (active) | 1.01 µM (active) | 0.451 µM (active) | 0.377 µM (active) | 0.354 µM (active) | 0.383 µM (active) | 0.447 µM (active) | 0.233 µM (active) | 5.09 µM (inactive) | 0.371 µM (active) | 0.679 µM (active) | 0.422 µM (active) | 0.234 µM (active) | 0.166 µM (active) |  | 0.0546 µM (active)
COC(=O)C1CC23C4=C(CCC41)CCC1CN4CC(C)C(CC(OC(C)=O)C12COC(C)=O)C43O (centres undefined) | > 100 µM (inactive) | > 100 µM (inactive) | > 100 µM (inactive) | > 100 µM (inactive) | > 100 µM (inactive) | > 100 µM (inactive) | > 100 µM (inactive) | > 100 µM (inactive) | > 100 µM (inactive) | > 100 µM (inactive) | > 100 µM (inactive) | > 100 µM (inactive) | > 100 µM (inactive) | > 100 µM (inactive) | > 100 µM (inactive) | > 100 µM (inactive) | 
Cc1nc2ccc(NC3OCC(O)C(O)C3O)cc2c(=O)n1-c1ccccc1 (centres undefined) | > 100 µM (inactive) |  | > 100 µM (inactive) |  | > 100 µM (inactive) | > 100 µM (inactive) |  | > 100 µM (inactive) | > 100 µM (inactive) | > 100 µM (inactive) | > 100 µM (inactive) | > 100 µM (inactive) | > 100 µM (inactive) | > 100 µM (inactive) | > 100 µM (inactive) | > 100 µM (inactive) | > 100 µM (inactive)
CCOC(=O)/C=C/[C@H](O)[C@@H](O)/C=C/C(=O)OCC | 33.8 µM (inactive) | 8.34 µM (inactive) | 32.4 µM (inactive) | 16.8 µM (inactive) | 15.4 µM (inactive) | 34.8 µM (inactive) |  | 19.6 µM (inactive) | 29.6 µM (inactive) | 29.9 µM (inactive) | 20.1 µM (inactive) | 31.8 µM (inactive) | 19.6 µM (inactive) | 23.3 µM (inactive) | 34.1 µM (inactive) | 21.3 µM (inactive) | 8.04 µM (inactive)
C[N+]1(C)CCCC(C#N)(c2ccccc2)CC1 (centres undefined) | > 100 µM (inactive) | > 100 µM (inactive) | > 100 µM (inactive) | > 100 µM (inactive) | > 100 µM (inactive) | > 100 µM (inactive) | > 100 µM (inactive) | > 100 µM (inactive) | > 100 µM (inactive) | > 100 µM (inactive) |  | > 100 µM (inactive) | > 100 µM (inactive) | > 100 µM (inactive) | > 100 µM (inactive) |  | > 100 µM (inactive)
Cc1nc2c(nc1C)-c1c(c3c(n1Cc1ccccc1)C(=O)CCC3)C(=O)C2=O | 3.42 µM (inactive) | 3.03 µM (inactive) | 30.5 µM (inactive) | 3.4 µM (inactive) | 4.65 µM (inactive) | 4.2 µM (inactive) | 4.42 µM (inactive) | 2.29 µM (inactive) | 2.21 µM (inactive) | 3.84 µM (inactive) | 2.38 µM (inactive) | 1.81 µM (inactive) | 3.09 µM (inactive) | 5.27 µM (inactive) | 4.06 µM (inactive) | 14.5 µM (inactive) | 2.1 µM (inactive)
O=C(O)CNc1ccc(C(=O)O)cc1 | > 100 µM (inactive) | > 100 µM (inactive) | > 100 µM (inactive) | > 100 µM (inactive) | > 100 µM (inactive) | > 100 µM (inactive) | > 100 µM (inactive) | > 100 µM (inactive) | > 100 µM (inactive) | > 100 µM (inactive) | > 100 µM (inactive) | > 100 µM (inactive) | > 100 µM (inactive) | > 100 µM (inactive) | > 100 µM (inactive) | > 100 µM (inactive) | 
COc1nc(C#CC2(O)CCCCC2)nc(OC)n1 | 22.9 µM (inactive) | 12.3 µM (inactive) | 14.7 µM (inactive) |  | 11.7 µM (inactive) | 11.5 µM (inactive) | 8.65 µM (inactive) | 4.28 µM (inactive) | 10.9 µM (inactive) | 23.6 µM (inactive) | 8.15 µM (inactive) | 1.87 µM (inactive) | 13 µM (inactive) | 5.62 µM (inactive) | 30.5 µM (inactive) | 6.55 µM (inactive) | 3.47 µM (inactive)
CC(C)=Cc1cc2c(cc1O)CCC1C2CC[C@@]2(C)C1CC[C@@H]2O (some centres undefined) | 12.4 µM (inactive) | 12.9 µM (inactive) | 18.4 µM (inactive) | 21.3 µM (inactive) | 14.9 µM (inactive) | 18.5 µM (inactive) | 10.4 µM (inactive) | 14.4 µM (inactive) | 2.44 µM (inactive) | 7.66 µM (inactive) |  | 30.3 µM (inactive) | 17.9 µM (inactive) | 11.7 µM (inactive) | 12.6 µM (inactive) |  | 3.18 µM (inactive)
